Key:
CYP2C8 = biological target: T1, CYP2C8 (Homo sapiens, UniProt P10632); assay: CYP2C8 inhibition in pooled human liver microsomes (paclitaxel 6α-hydroxylation); assay type: in vitro ADME; details: CEP 100 μM, pooled HLMs
T1 construct: from tissue; host or cells: pooled human liver microsomes
T1 sequence (P10632 1-490): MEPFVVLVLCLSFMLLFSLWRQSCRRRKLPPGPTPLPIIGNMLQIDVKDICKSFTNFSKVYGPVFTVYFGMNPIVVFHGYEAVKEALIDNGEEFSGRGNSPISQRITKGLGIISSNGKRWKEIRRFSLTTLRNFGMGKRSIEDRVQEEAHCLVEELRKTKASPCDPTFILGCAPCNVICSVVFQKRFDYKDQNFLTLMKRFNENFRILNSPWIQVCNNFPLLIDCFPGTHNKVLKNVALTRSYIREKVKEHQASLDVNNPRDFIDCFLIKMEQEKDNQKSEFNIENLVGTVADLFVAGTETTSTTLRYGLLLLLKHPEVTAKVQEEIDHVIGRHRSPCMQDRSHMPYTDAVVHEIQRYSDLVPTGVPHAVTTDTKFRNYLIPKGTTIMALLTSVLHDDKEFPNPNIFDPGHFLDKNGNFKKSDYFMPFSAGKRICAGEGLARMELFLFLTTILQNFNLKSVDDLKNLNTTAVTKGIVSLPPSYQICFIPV
Protocol: (§1) Marker reactions of eight CYP isoforms were examined, and apparent Km values were estimated to characterize the pooled HLMs. All incubations were performed in triplicate, and the mean values were utilized. The typical incubation systems contained 100 mM potassium phosphate buffer (pH 7.4), NADPH generating system (1 mM NADP^+, 10 mM glucose-6-phosphate, 1 U/mL of glucose-6-phosphate dehydrogenase and 4 mM MgCl2), the appropriate concentration of HLMs, a corresponding probe substrate and hispidulin (or positive inhibitor for different probe reactions) in a final volume of 200 μL.
(§2) There was a 3-min preincubation period (at 37 °C) before the reaction was initiated by adding an NADPH-generating system. The reaction was terminated by adding a 100 μL acetonitrile (10% trichloroacetic acid for CYP2A6) internal standard mix, and the solution was placed on ice. The mixture was centrifuged at 12,000 rpm for 10 min, and an aliquot (50 μL) of supernatant was transferred for HPLC analysis. The instrument used in this study was Agilent 1260 series instrument with DAD and FLD detector, and the quantitative assay for the corresponding metabolites was performed as previously reported (Lang et al. [2016]; Zhang et al. [2017]). The quantitative analysis of metabolites can represent the activity of corresponding CYPs.

CYP3A4 [1] = biological target: T2, CYP3A4 (Homo sapiens, UniProt P08684); assay: Time-dependent inhibition of CYP3A4 in human liver microsomes; assay type: in vitro ADME
T2 construct: CYP3A4 catalysed reactions (testosterone 6β-hydroxylation) in pooled HLM; from tissue; host or cells: pooled human liver microsomes
Protocol: (§3) After incubation, an aliquot (20 μL) was transferred to another incubation tube (final volume 200 μL) containing an NADPH-generating system and probe substrates whose final concentrations were approximate to Km. Then, further incubations were performed to measure the residual activity. After being incubated for 0, 5, 10, 15, and 30 min, the reactions were terminated by adding a 100 μL acetonitrile internal standard mix and then placed on ice; the corresponding metabolites were determined by HPLC.

CYP2C9 [2] = biological target: T3, CYP2C9 (Homo sapiens, UniProt P11712); assay: CYP2C9 inhibition in pooled human liver microsomes (diclofenac 4′-hydroxylation); assay type: in vitro ADME
T3 construct: from tissue; host or cells: pooled human liver microsomes
Protocol: as §1, §2
(§4) The enzyme kinetic parameters for the probe reaction were estimated from the best fit line, using least-squares linear regression of the inverse substrate concentration versus the inverse velocity (Lineweaver-Burk plots), and the mean values were used to calculate Vmax and Km. Inhibition data from the experiments that were conducted using multiple compound concentrations were represented by Dixon plots, and inhibition constant (Ki) values were calculated using non-linear regression according to the following equation: v=(VmaxS/Km(1+I/Ki)+S) where I is the concentration of the compound, Ki is the inhibition constant, S is the concentration of the substrate, and Km is the substrate concentration at half the maximum velocity (Vmax) of the reaction. The mechanism of the inhibition was inspected using the Lineweaver–Burk plots and the enzyme inhibition models. The data comparison was performed using Student’s t-test and performed using IBM SPSS statistics version 20 (IBM SPSS Inc., Armonk, NY).

CYP2E1 [3] = biological target: T4, CYP2E1 (Homo sapiens, UniProt P05181); assay: Time-dependent inhibition of CYP2E1 in human liver microsomes; assay type: in vitro ADME; details: CEP 20 μM, pre-incubation with HLM 30 min, incubation 0–30 min
T4 construct: CYP2E1 catalysed reactions (chlorzoxazone 6-hydroxylation) in pooled HLM; from tissue; host or cells: pooled human liver microsomes
Protocol: as §3

CYP1A2 = biological target: T5, CYP1A2 (Homo sapiens, UniProt P05177); assay: CYP1A2 inhibition in pooled human liver microsomes (phenacetin O-deethylation); assay type: in vitro ADME; details: CEP 100 μM, pooled HLMs
T5 construct: from tissue; host or cells: pooled human liver microsomes
T5 sequence (P05177 1-516): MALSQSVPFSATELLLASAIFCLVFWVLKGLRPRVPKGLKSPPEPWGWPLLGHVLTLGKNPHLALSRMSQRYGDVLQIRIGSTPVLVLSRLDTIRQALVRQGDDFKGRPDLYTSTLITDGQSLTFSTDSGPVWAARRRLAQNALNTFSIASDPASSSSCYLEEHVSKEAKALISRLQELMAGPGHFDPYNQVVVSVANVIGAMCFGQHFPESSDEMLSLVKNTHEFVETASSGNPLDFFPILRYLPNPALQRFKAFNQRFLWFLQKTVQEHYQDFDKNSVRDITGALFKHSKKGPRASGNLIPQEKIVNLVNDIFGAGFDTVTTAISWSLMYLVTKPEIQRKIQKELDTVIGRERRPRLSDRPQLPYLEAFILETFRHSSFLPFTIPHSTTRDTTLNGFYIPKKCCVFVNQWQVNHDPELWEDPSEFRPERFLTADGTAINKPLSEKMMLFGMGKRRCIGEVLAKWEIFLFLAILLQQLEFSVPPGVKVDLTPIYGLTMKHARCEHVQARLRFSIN
Protocol: as §1, §2

[4] = parameters: method as in Jiang et al. [2016]; details: rats, orally administered CEP 10 mg/kg; ref Jiang et al. [2016]; cited from earlier work
CYP2E1 [5] = biological target: T4, CYP2E1; assay: CYP2E1 inhibition in pooled human liver microsomes (chlorzoxazone 6-hydroxylation); assay type: in vitro ADME
Protocol: as §1, §2, §4

CYP2D6 = biological target: T6, CYP2D6 (Homo sapiens, UniProt P10635); assay: CYP2D6 inhibition in pooled human liver microsomes (dextromethorphan O-demethylation); assay type: in vitro ADME; details: CEP 100 μM, pooled HLMs
T6 construct: from tissue; host or cells: pooled human liver microsomes
Protocol: as §1, §2

CYP3A4 [6] = biological target: T2, CYP3A4; assay: CYP3A4 inhibition in pooled human liver microsomes (testosterone 6β-hydroxylation); assay type: in vitro ADME
Protocol: All incubations were performed in triplicate, and the mean values were utilized.
The reaction was terminated by adding a 100 μL acetonitrile (10% trichloroacetic acid for CYP2A6) internal standard mix, and the solution was placed on ice. The mixture was centrifuged at 12,000 rpm for 10 min, and an aliquot (50 μL) of supernatant was transferred for HPLC analysis.
The enzyme kinetic parameters for the probe reaction were estimated from the best fit line, using least-squares linear regression of the inverse substrate concentration versus the inverse velocity (Lineweaver-Burk plots), and the mean values were used to calculate Vmax and Km. […] The mechanism of the inhibition was inspected using the Lineweaver–Burk plots and the enzyme inhibition models.

CYP2C9 [7] = biological target: T3, CYP2C9; assay: Time-dependent inhibition of CYP2C9 in human liver microsomes; assay type: in vitro ADME; details: CEP 20 μM, pre-incubation with HLM 30 min, incubation 0–30 min
Protocol: as §3

CYP2A6 = biological target: T7, CYP2A6 (Homo sapiens, UniProt P11509); assay: CYP2A6 inhibition in pooled human liver microsomes (coumarin 7-hydroxylation); assay type: in vitro ADME; details: CEP 100 μM, pooled HLMs
T7 construct: from tissue; host or cells: pooled human liver microsomes
T7 sequence (P11509 1-494): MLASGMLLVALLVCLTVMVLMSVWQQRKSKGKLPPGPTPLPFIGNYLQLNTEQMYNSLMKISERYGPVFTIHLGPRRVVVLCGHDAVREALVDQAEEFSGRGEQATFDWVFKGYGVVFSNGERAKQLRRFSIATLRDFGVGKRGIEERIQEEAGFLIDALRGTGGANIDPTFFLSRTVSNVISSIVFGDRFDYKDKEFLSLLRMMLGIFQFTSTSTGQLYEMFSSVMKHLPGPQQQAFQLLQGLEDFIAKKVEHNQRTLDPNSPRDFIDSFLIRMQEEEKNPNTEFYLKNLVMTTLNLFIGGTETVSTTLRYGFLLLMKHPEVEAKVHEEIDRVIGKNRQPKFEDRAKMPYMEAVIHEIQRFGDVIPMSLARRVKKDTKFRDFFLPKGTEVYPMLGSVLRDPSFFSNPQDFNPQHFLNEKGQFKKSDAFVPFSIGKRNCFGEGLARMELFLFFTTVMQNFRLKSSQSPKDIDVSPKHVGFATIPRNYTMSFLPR
Protocol: as §1, §2

CYP2C19 = biological target: T8, CYP2C19 (Homo sapiens, UniProt P33261); assay: CYP2C19 inhibition in pooled human liver microsomes (S-mephenytoin 4-hydroxylation); assay type: in vitro ADME; details: CEP 100 μM, pooled HLMs
T8 construct: from tissue; host or cells: pooled human liver microsomes
Protocol: as §1, §2

T3 sequence (P11712 whole entry): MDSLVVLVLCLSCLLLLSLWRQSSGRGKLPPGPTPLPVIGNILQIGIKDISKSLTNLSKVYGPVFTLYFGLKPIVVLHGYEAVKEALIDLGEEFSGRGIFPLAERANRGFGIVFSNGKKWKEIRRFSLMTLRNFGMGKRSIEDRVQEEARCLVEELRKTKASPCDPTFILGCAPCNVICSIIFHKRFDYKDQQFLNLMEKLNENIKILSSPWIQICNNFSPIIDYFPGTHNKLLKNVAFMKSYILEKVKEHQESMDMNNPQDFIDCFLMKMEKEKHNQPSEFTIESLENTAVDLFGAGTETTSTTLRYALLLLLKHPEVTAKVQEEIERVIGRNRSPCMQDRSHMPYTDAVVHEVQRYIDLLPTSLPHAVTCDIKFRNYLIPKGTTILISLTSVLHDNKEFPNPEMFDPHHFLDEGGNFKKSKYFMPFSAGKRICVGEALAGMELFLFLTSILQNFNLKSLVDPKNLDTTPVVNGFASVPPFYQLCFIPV
T4 sequence (P05181 whole entry): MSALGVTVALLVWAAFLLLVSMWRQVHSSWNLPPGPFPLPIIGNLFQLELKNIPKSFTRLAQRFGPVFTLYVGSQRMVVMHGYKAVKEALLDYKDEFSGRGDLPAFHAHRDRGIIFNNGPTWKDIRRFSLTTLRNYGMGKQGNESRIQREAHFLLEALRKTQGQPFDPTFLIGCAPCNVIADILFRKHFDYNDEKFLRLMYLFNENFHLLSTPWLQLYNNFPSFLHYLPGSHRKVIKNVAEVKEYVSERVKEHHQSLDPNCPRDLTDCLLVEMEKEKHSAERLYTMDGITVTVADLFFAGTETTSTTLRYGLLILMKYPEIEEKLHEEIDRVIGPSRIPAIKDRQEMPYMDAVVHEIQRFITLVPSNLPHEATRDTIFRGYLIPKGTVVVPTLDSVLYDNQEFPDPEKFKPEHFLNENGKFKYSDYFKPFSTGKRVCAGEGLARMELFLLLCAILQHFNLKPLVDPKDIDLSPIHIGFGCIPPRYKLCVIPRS
T2 sequence (P08684 whole entry): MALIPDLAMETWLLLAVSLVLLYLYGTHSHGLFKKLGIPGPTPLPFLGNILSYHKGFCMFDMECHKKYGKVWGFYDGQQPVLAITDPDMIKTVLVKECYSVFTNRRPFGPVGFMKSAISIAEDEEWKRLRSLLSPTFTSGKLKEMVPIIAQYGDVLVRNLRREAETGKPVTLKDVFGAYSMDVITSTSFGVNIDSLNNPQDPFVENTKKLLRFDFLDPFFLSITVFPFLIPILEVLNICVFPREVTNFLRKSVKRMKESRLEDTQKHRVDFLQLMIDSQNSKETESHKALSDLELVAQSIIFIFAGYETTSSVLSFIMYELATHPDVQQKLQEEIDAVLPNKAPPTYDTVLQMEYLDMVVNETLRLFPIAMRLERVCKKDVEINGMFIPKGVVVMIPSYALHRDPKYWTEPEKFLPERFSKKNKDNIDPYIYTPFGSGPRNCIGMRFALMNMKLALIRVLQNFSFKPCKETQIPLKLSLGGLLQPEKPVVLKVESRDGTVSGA
T6 sequence (P10635 whole entry): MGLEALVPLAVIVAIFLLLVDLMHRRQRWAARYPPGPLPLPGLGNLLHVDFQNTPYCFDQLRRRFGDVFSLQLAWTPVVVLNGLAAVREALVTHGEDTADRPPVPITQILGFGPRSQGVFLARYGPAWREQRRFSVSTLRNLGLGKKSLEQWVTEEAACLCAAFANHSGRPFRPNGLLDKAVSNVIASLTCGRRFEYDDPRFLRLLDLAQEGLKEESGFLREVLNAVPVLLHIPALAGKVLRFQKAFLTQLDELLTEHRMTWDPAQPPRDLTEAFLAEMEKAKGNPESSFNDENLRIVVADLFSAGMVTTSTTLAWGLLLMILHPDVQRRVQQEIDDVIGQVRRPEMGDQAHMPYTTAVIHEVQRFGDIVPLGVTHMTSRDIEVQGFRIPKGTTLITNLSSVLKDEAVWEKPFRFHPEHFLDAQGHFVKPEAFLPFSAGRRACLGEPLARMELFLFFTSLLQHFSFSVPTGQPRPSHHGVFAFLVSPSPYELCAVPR
T8 sequence (P33261 whole entry): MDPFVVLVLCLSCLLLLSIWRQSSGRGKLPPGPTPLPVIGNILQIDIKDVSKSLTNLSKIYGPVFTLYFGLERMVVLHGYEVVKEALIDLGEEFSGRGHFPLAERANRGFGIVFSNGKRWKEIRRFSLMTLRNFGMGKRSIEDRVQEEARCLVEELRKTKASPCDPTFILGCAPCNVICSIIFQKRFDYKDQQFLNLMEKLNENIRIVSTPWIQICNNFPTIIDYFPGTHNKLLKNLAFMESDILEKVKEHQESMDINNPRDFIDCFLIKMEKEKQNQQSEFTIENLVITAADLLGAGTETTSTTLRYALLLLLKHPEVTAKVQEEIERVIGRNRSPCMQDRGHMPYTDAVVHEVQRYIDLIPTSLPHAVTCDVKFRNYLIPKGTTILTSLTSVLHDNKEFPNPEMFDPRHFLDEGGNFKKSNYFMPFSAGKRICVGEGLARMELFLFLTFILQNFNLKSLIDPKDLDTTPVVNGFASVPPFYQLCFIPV

Effect on CYP2C8 activity (CYP2C8): not affected
Time-dependent change of CYP3A4 activity (CYP3A4 [1]; CEP 20 μM, pre-incubation with HLM 30 min, incubation 0–30 min): decreased with the incubation time
CYP3A4 inactivated each minute at a saturating concentration of CEP (CYP3A4 [1]; HLM, from Kinact): about 5.8%
Ki (CYP2C9 [2]): 13.1 µM
activity at 100 μM (CYP2C9 [2]; human, pooled human liver microsomes, pH 7.4, probe diclofenac (4′-hydroxylation), read-out: CYP2C9 activity, % of control activity): 18.1%
Inhibition manner on CYP2C9 (Lineweaver–Burk plots) (CYP2C9 [2]; pooled HLMs): competitive
IC50 (CYP2C9 [2]; pooled HLMs, diclofenac 4′-hydroxylation): 24.6 µM
Time-dependent change of CYP2E1 activity (CYP2E1 [3]): not affected
Effect on CYP1A2 activity (CYP1A2): not affected
Ki (CYP2E1 [5]): 11.8 µM
activity at 100 μM (CYP2E1 [5]; human, pooled human liver microsomes, pH 7.4, probe chlorzoxazone (6-hydroxylation), read-out: CYP2E1 activity, % of control activity): 23.6%
Inhibition manner on CYP2E1 (Lineweaver–Burk plots) (CYP2E1 [5]; pooled HLMs): competitive
IC50 (CYP2E1 [5]; pooled HLMs, chlorzoxazone 6-hydroxylation): 25.6 µM
Effect on CYP2D6 activity (CYP2D6): not affected
activity at 100 μM (CYP3A4 [6]; human, pooled human liver microsomes, pH 7.4, probe testosterone (6β-hydroxylation), read-out: CYP3A4 activity, % of control activity): 12.6%
Inhibition manner on CYP3A4 (Lineweaver–Burk plots) (CYP3A4 [6]; pooled HLMs): non-competitive
Time-dependent change of CYP2C9 activity (CYP2C9 [7]): not affected
Effect on CYP2A6 activity (CYP2A6): not affected
Effect on CYP2C19 activity (CYP2C19): not affected
Structure (SMILES): COc1ccc2cc1Oc1ccc(cc1)C[C@H]1c3c(cc4c(c3Oc3cc5c(cc3OC)CCN(C)[C@@H]5C2)OCO4)CCN1C [CEP, Cepharanthine]
plasma Cmax [4]: approximately 0.05 μg/mL

— article PMC7170383 (Pharmaceutical Biology, 2020)
